Assays:
[1] = Anodic cyclic polarization (CYP): pitting potential
Source text: (§1) The steel cylinder working electrode (WE) were cross-sectioned and encased in epoxy. The surface was polished using 120 grit to 600 grit SiC paper, resulting in an exposed area of 0.499±0.01 cm^2. A Pt mesh was used as the counter electrode (CE). In terms of the reference electrodes (RE), a Saturated Calomel Electrode (SCE) was used for solutions with chloride and a Mercury Mercurous Sulfate Electrode (MSE) for solutions without chloride, satisfying the electrochemical cell requirements of ASTM standard G5 [38]. Though the experiments without chlorides were measured with MSE, the results were converted to SCE.
(§2) The WE, RE, and CE were placed in a test cell containing a synthetic pore solution (SPS). This SPS mimics the concrete pore environment and followed a formula consisting of 8.33 g/L NaOH+23.3 g/L KOH+2.0 g/L Ca(OH)2 (pH:13.6). These solutions were prepared using deionized water from a Milli-Q Water Purification System (resistivity: 18.2-18.7 MΩ·cm) and analytically pure grade reagents.
The testing procedure involved an initial pH measurement of the solution followed by purging the cell with CO2-free air (300 cc/min or more) for 5 minutes, prior to introducing the WE and throughout the experiment to reduce the effects of carbonation. More details can be found elsewhere. 2 M NaCl was chosen for the experiments since previously tested concentrations were not able to break the passive film generated in this highly alkaline environment. After chloride addition, the electrolyte was stirred for 4 h, while continuing to purge with CO2-free air. Then stirring stopped and purging was continued for 20 h to allow for passivation of the substrate. […] This procedure is similar to ASTM G180 [41]. The difference is related to the use of SPS instead of a cement slurry. Using a Gamry Reference 600+Potentiostat, different electrochemical tests were performed including open circuit potential (OCP), linear polarization resistance (LPR) and Anodic Cyclic Polarization (CYP).
LPR tests were performed from −0.030 V to +0.030 V from OCP, with a scan rate of 0.167 mV/s, in accordance with ASTM G59. CYP ran at a scan rate of 0.167 mV/s, beginning at 0.030 V more negative than the OCP with a maximum i of 1 mA/cm^2. Tests were performed to verify that pitting was occurring and not crevice corrosion occurred during CYP. After each experiment, the specimen was rinsed with D.I. water, degreased with ethanol, and dried. Surface images were taken using BX53 Olympus microscope to evaluate the corrosion morphology. […]
It is observed that for all conditions evaluated the passive film on the steel was formed, but the pitting potential (Ep) changed, being higher with the increase in BPT concentration (Table 3).

[2] = A36 mild steel, 1M HCl, 298 K; 2.311 mm/year without inhibitor; cited from earlier work
[3] = Stability/solubility of BPT in SPS and co-dissolvers; type: physicochemical
Protocol: Initial tests were run to find the stability/solubility of BPT in SPS. […] Several co-dissolvers were tested (ethyl alcohol 95%, isopropyl alcohol, acetone, dimethylsulfoxide, dimethylformamide, ethylenglycol, diethylenglycol, and 1-Methyl-2-pyrrolidinone), to aid in the solubility of the BPT in SPS. From these co-dissolvers, the organic compound N-methyl-2-pyrrolidone (NMP) performed the best and was selected at a concentration of 2.35 mg of BPT/mL of NMP (BPT saturated NMP solution).

[4] = XRD quantitative phase analysis of carbon steel discs after immersion
Protocol: Four 3 mm height discs were cut from […] diameter steel rebar and one of their flat faces was polished using silicon carbide sandpaper with 250, 400 and, 600 grit. Subsequently each disc was immersed for 90 seconds in 10 mL of a freshly prepared Clarke solution [42], rinsed thoroughly with water, acetone and dried under a soft stream of dry N2. The crystalline structure of the samples was analyzed on their sheeny face employing X-Ray powder diffraction (XRD) using a Bruker D8 Advance Eco diffractometer applying Cu-Kα1,2 radiation. All samples were scanned at 40 kV and 25 mA in the […] of 31-66° and 2.0 s of step time per 2θ=0.019°. The crystalline planes used to perform the quantitative phase analysis (QPA) are for iron at 2θ=44.6°; [2,0,0] for lepidocrocite at 2θ=47.4° and, [2,2,0] for goethite at 2θ=33.6°.
Subsequently, each one of the discs was immersed in a solution with the composition as described on Table 5 and their surfaces were analyzed using XRD four weeks later. The diffraction patterns are shown in FIG. 9 and the quantitative phase analysis (QPA) data is given on Table 6.

[5] = Linear polarization resistance (LPR): corrosion rate and inhibitor efficiency of steel rebar in synthetic pore solution
Source text: as §1, §2
The testing procedure involved an initial pH measurement of the solution followed by purging the cell with CO2-free air (300 cc/min or more) for 5 minutes, prior to introducing the WE and throughout the experiment to reduce the effects of carbonation. More details can be found elsewhere. 2 M NaCl was chosen for the experiments since previously tested concentrations were not able to break the passive film generated in this highly alkaline environment. After chloride addition, the electrolyte was stirred for 4 h, while continuing to purge with CO2-free air. Then stirring stopped and purging was continued for 20 h to allow for passivation of the substrate. […]
The results of the LPR measurements for the different conditions tested are presented in FIG. 3 as CR, which was determined using an estimated Stem-Geary coefficient (B) of 26 mV (corroding bars) and Rp values calculated, all following ASTM G59 [72, 73]. […]
The efficiency (IE, %) of the BPT was calculated using the CR results when Cl^− was added to the control solution (CRSPS) and solutions containing BPT (CRBPT), using Equation (1). […]

c1ccc(Cn2cc(-c3ccccc3)nn2)cc1 [BPT, 1-Benzyl-4-Phenyl-1H-1,2,3-triazole]
Ep (pitting potential) ([1]; 1 mM BPT in SPS, 2M NaCl): 149.25 mV vs. SCE | Ep (pitting potential) ([1]; 2 mM BPT in SPS, 2M NaCl): 404.04 mV vs. SCE | Ep (pitting potential) ([1]; 3 mM BPT in SPS, 2M NaCl): 302.06 mV vs. SCE | Ep (pitting potential) ([1]; Adj. 3 mM BPT+NMP (hydroxide concentration adjusted to SPS), 2 M NaCl): 429.53±1.29 mV vs. SCE | corrosion kinetics (corrosion rate) with BPT [2]: 0.429 mm/year | stability in SPS ([3]; alkaline solution (SPS, pH 13.6)): stable in the alkaline solution | concentration of BPT saturated NMP solution ([3]; in N-methyl-2-pyrrolidone (NMP)): 2.35 mg of BPT/mL of NMP | solubility in water ([3]; water): unable to dissolve in water | AFe/AGoe ([4]; SPS with NaCl in presence of BPT): 0 | AFe/ALep ([4]; disc 4: SPS + 2M NaCl + NMP + 3 mM BPT, four-week immersion): 26,908 | efficiency (IE, %) ([5]; 3 mM BPT in SPS with 2 M NaCl, calculated from CR by Equation (1)): 85.2% | concentrations at which BPT can inhibit the corrosion of carbon steel rebar ([5]; SPS with 2 M NaCl): higher than 2 mM | optimal concentration of BPT to inhibit corrosion on carbon steel rebar ([5]; SPS with 2 M NaCl): 3 mM
